In a melting point compilation (Tetko et al.; mined from patent text by program, amines drawn as free bases though some values may be those of a salt):

SMILES | melting point [°C]
Nc1cc(C(=O)O)cc(S(N)(=O)=O)c1Nc1cccc(C(F)(F)F)c1 | 273 to 274
Cc1cccc2c1nc(COc1ccc(Cl)cc1)n2CCC(C)CN1CCCC1 (racemic) | 85 to 87
COc1ccc(C2=CC=CCC2(OC(C)C)C(=O)O)c(OC)c1 (stereo not drawn) | 121 to 122
CC(C)c1cc(/C=C/C(=O)O)n(Cc2ccc(Cl)cc2Cl)n1 | 174 to 175
Cc1ccc(OCCOc2ccc(C(=O)C(=O)O)cc2)cc1 | 135 to 136
CCCCSc1cc(C(=O)O)cc(S(N)(=O)=O)c1Cl | 202 to 203
CCN1C(CNC(=O)c2cc(Cl)c(N)cc2OC)CCC1c1ccccc1 (stereo not drawn) | 187 to 188
COC(=O)NC1=NCC(c2cccc3ccccc23)N1C (stereo not drawn) | 187 to 190
CC(=O)Oc1ccc2c(ccc3ccccc32)c1 | 141 to 142
Cc1c(NCc2ccccc2)c2c(c3c1C(c1ccc(C(C)C)cc1)CO3)CCCC2 (stereo not drawn) | 98 to 99
CCOC(=O)c1[nH]nnc1Nc1ccc(C)cc1 | 129 to 130
CC1=C(C)C(=O)N(OC(=S)N(C)C)C1=O | 135 to 138
O=S1(=O)c2ccccc2N(c2ccc(-c3nc4ccccc4n3-c3ccccc3)cc2)c2ccccc21 | 286 to 288
Nc1c(-c2ccc(OC(F)(F)F)cc2)nnn1-c1ccc(C(F)(F)F)cc1F | 134 to 135
COc1cc(C=CC(=O)c2ccc(N(C)C)cc2)cc(OC)c1 | 155 to 156
CCCCCC(=O)c1c[nH]c2c(OC)cccc2c1=O | 169 to 171
CC(C)(C)OC(=O)NCCc1c[nH]c2ccc(CCO)cc12 | 204 to 206
CCn1cc(C(=O)O)c(=O)c2cc(F)c(N3CCC(NC)C3)nc21 (stereo not drawn) | 242
CCCc1cc(C(C)=O)c(O)cc1OCCCCC(=O)O | 106
CC(C)c1cccc(C(C)C)c1NC(=O)CS(=O)(=O)CCN1CCN(c2ccccc2)CC1 | 197 to 200
N#Cc1ccc(C=Cc2ccccc2)cc1 | 119
O=C1CCC(N2Cc3c(OCc4cnc5ccccc5c4)cccc3C2=O)C(=O)N1 (stereo not drawn) | 270 to 273
Oc1nc2ccc3ncsc3c2nc1O | > 360
CCCn1c(=O)[nH]c2c(C)ccc(OCC(O)CN3CCC(COc4ccccc4)CC3)c21 (stereo not drawn) | 91 to 93
O=c1cc(CCl)nc2sc(-c3ccccc3)nn12 | 201 to 202

SMILES | melting point [°C]
Clc1ccc(-c2nnnn2Cc2ccccc2)s1 | 176 to 177
COC(=O)C(Cc1cccs1)NC(=O)[C@H](Cc1cccc2ccccc12)NC(=O)OCc1ccccc1 (mixture of isomers) | 140 to 141
COc1ccc(C(=O)NCC(O)CCl)cc1OC (stereo not drawn) | 104 to 106
O=C(O)C(=O)c1ccc(OCc2ccccc2)cc1 | 97 to 98
CSc1nn2c(N3CCN(CCO)CC3)cc(C)nc2c1S(=O)(=O)c1ccccc1 | 189 to 190
O=C1OC(=O)c2cc3ccc([N+](=O)[O-])cc3c3cccc1c23 | 290
CC(=O)N1N=C(c2ccncc2)OC1(C)C | 117 to 118
CC1(C)Cc2cc(Cl)cc(Cl)c2C=[N+]1[O-] | 92 to 94
C=CCN1C(=O)CCc2cc(Sc3cccc([C@@]4(O)CCO[C@@H](C)C4)c3)ccc21 | 107 to 109
O=S(=O)(NCC1CCC(NCC2CCc3ccccc3C2)CC1)c1ccc2ccccc2c1 (stereo not drawn) | 114 to 115
COc1ccc(-c2cc3cc(F)c(F)cc3[nH]2)cc1NS(=O)(=O)c1cccc(C#N)c1 | 239 to 242
CN(C)CN=c1[nH]c2cnccc2s1 | 125 to 127
CC(=O)Oc1c(C)c(C)c2c(c1C)C(O)CC(C)(COc1ccc([N+](=O)[O-])cc1)O2 (stereo not drawn) | 139 to 141
Cc1ccc2c(C(=O)O)csc2c1 | 205 to 209
CCOC(=O)c1cccnc1Oc1cncc(Cl)c1 | 65 to 69
O=S(c1ccccc1)C1O[C@H](COCc2ccccc2)[C@@H](OCc2ccccc2)[C@H](OCc2ccccc2)[C@H]1OCc1ccccc1 (stereo partly drawn) | 120 to 122
NC(=O)c1ccnc(-c2ccccc2)c1N | 163 to 164
COCc1cc2c([N+](=O)[O-])cccc2cn1 | 91
COC(=O)C(C)c1ccc2cc(OC(=O)COCc3ccccc3)ccc2c1 (stereo not drawn) | 58 to 60
COC(=O)c1cc(OCc2cccc(Cl)c2)ccc1OCCCC#N | 97 to 98
CCCCc1nc(O)cc(CC(=O)OC)n1 | 83 to 85
O=Cc1coc2ccc(OCc3ccccc3)cc2c1=O | 163 to 166
Cc1cc(-c2cccc(C(=O)CC(=O)OC(C)(C)C)c2)on1 | 50 to 56
CCOCn1c(Cc2ccccc2)c(C(C)C)c(=O)[nH]c1=O | 111
CN1CCC[C@@H]1Cc1c[nH]c2ccc(CS(=O)(=O)NC(C)(C)C)cc12 | 73 to 75

SMILES | melting point [°C]
O=C(O)[C@@H]1CN[C@H](C(=O)O)C1 | 219 to 220
CN(C)Cc1cc(-c2ccccc2)c2c(n1)OCCN(Cc1cc(C(F)(F)F)cc(C(F)(F)F)c1)C2=O | 186 to 188
COc1cc(C(=O)N2CC2C#N)cc(OC)c1OC (stereo not drawn) | 86 to 89
Cc1cccc2c1NC(=O)C(NC(=O)OCc1ccccc1)N=C2c1ccccc1F (racemic) | 222 to 225
O=C(CBr)c1ccc(Br)s1 | 79
COc1cc(Nc2c(C#N)cnc3cc(-c4ccc(C=O)cc4)sc23)c(Cl)cc1Cl | 261 to 262
COc1cc(C)c(OC)c(OC)c1-c1csc(NC(=O)c2cc3ccccc3[nH]2)n1 | 200
O=CC(=C(Cl)c1ccc(Cl)cc1Cl)c1ccc(Cl)cc1 | 128
CC(C)(C)c1ccc(CCCCC(=O)CC2CCCCC2)cc1NC(=O)CC1c2ccccc2Oc2ccccc21 | 126 to 127
COc1ccccc1C1(O)c2cc(NC(=O)CC(C)(C)C)c(C)c(C)c2OC1(C)C (stereo not drawn) | 168 to 169
CCCNC(=O)C=Cc1ccc2ccn(Cc3ccc(C(=O)O)cc3OC)c2c1 | 210 to 212
Clc1ccc(-c2c(CC3NCCS3)cnn2-c2ccccc2)cc1 (stereo not drawn) | 170 to 172
CCCCOc1ccc(S(=O)(=O)N2CCC(OS(C)(=O)=O)C2)cc1 (stereo not drawn) | 80 to 81
CC(=O)Nc1ccc(O)c(C(=O)CCC(=O)O)c1 | 205 to 206
Nc1nc2ccc(Sc3ccccc3)cc2s1 | 180 to 182
CCCSc1c(C=NO)c(=O)n(C)c(=O)n1C | 161 to 162
CCOC(=O)C(=O)Nc1ccc(C#N)c2ccccc12 | 164
COc1ccc(S(=O)(=O)[C@H](CCCCc2ccccc2)[C@@H](CCS(=O)(=O)c2ccccc2)C(=O)NO)cc1OC | 78 to 81
CCCOc1ccccc1-c1nc2nc(OC)ncc2c(=O)[nH]1 | 231
O=C1OC(P(=O)(O)c2ccccc2)c2ccccc21 (stereo not drawn) | 230 to 233
COCCN1CCc2cc(Nc3ncc(Cl)c(Nc4ccccc4S(=O)(=O)N(C)C)n3)c(OC)cc2CC1 | 54 to 64
CC(C)OC1CC(O)C(=O)N1S(=O)(=O)c1ccccc1 (stereo not drawn) | 127 to 129
NC(=O)c1nc(-c2ccc3nc[nH]c3c2)nc2c1[nH]c(=O)n2-c1ccccc1F | 278
